This note sets out measurements from patent publication US11236084B2, “Substituted azaindoline derivatives as NIK inhibitors” (Janssen Pharmaceutica NV, priority 2017, dated 2022).

Assay [1] deals with recombinant human NF-kappaB-inducing kinase (NIK/MAP3K14) (Homo sapiens, UniProt Q99558). Nature of the assay: Biological Assay B: inhibition of auto-phosphorylation of recombinant human NIK/MAP3K14 (AlphaScreen), performed at 2 locations. The settings on record: averaged values. In kind it is biochemical. Summed up: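 Run at two separate sites: 1 h, 25° C. reactions containing 0.2 nM GST-NIK, 25 microM ATP and compound (1% DMSO) in Tris pH 7.5/MgCl2 buffer. Phosphorylation detected via anti-phospho-IKK Ser176/180 antibody with AlphaScreen beads; IC50 fitted to % inhibition.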
On the technique in general: Bead proximity is the source of the signal in Alpha formats.

Assay [2] relates to P-IKKα levels in L363 (NIK translocated multiple myeloma) cells. As to the kind of experiment: Biological Assay C: effect of compounds on P-IKKα levels in L363 (NIK translocated multiple myeloma) cells, performed at 2 locations. In kind it is cell-based, human. The settings on record: averaged values. The procedure: Effect of Compounds on P-IKKα Levels in L363 (NIK Translocated Multiple Myeloma) Cells
All compounds tested were dissolved in DMSO and further dilutions were made in culture medium. Final DMSO concentration was 1% (v/v) in cell assays. The human L363 cells (ATCC) were cultured in RPMI 1640 medium supplemented with GlutaMax and 10% fetal calf serum (PAA). Cells were routinely maintained at densities of 0.2×10^6 cells per ml-1×10^6 cells per ml at 37° C. in a humidified 5% CO2 atmosphere. Cells were passaged twice a week splitting back to obtain the low density. Cells were seeded in 96 well plates (Nunc 167008) at 2×10^6 per ml media in a volume of 75 μl per well plus 25 μl […] recombinant human B-cell activating factor (BAFF/BLyS/TNFSF13B). Seeded cells were incubated at 37° C. in a humidified 5% CO2 atmosphere for 24 hr. Drugs and/or solvents were added (20 μl) to a final volume of 120 μl. Following 2 hr treatment plates were removed from the incubator and cell lysis was achieved by the addition of 30 μl 5× lysis buffer followed by shaking on a plate shaker at 4° C. for 10 min. At the end of this incubation lysed cells were centrifuged at 800×g for 20 min at 4° C. and the lysate was assessed for P-IKKα levels by sandwich immuno-assay carried out in anti-rabbit antibody coated Mesoscale plates. Within an experiment, the results for each treatment were the mean of 2 replicate wells. For initial screening purposes, compounds were tested using an 8 point dilution curve (serial 1:3 dilutions). For each experiment, controls (containing MG132 and BAFF but no test drug) and a blank incubation (containing MG132 and BAFF and 1 μM ADS125117, a test concentration known to give full inhibition) were run in parallel. The blank incubation value was subtracted from all control and sample values. To determine the IC50 a sigmoidal curve was fitted to the plot of % inhibition of control P-IKKα levels versus Log10 compound concentration.
Assay C was performed at 2 different locations.
Data for the compounds of the invention in the above assays are provided in Table A (the values in Table are averaged values over all measurements on all batches of a compound; values as IC50 (nM)). (‘n.c.’ means not calculated: ‘Co.’ means compound)

[3] abbreviates: location 1, AlphaScreen auto-phosphorylation, read-out: Assay B location 1 IC50.
Setting [4] is: location 2, AlphaScreen auto-phosphorylation, read-out: Assay B location 2 IC50.
Where [5] appears, read: Homo sapiens, L-363, location 1, L363 cells, P-IKKα levels, read-out: Assay C location 1 IC50.
The mark [6] stands for this setting: location 1, NIK auto-phosphorylation, AlphaScreen, read-out: Assay B location 1 IC50.
Where [7] appears, read: Homo sapiens, L-363, location 2, L363 cells, P-IKKα levels, read-out: Assay C location 2 IC50.
Setting [8] is: Homo sapiens, L-363, 2 h, location 1, P-IKKα levels in L363 cells, 2 hr treatment, read-out: Assay C location 1 IC50.

Read-outs that look alike come from different tables or passages of the source.

Chain of recombinant human NF-kappaB-inducing kinase (NIK/MAP3K14) (Q99558 whole entry): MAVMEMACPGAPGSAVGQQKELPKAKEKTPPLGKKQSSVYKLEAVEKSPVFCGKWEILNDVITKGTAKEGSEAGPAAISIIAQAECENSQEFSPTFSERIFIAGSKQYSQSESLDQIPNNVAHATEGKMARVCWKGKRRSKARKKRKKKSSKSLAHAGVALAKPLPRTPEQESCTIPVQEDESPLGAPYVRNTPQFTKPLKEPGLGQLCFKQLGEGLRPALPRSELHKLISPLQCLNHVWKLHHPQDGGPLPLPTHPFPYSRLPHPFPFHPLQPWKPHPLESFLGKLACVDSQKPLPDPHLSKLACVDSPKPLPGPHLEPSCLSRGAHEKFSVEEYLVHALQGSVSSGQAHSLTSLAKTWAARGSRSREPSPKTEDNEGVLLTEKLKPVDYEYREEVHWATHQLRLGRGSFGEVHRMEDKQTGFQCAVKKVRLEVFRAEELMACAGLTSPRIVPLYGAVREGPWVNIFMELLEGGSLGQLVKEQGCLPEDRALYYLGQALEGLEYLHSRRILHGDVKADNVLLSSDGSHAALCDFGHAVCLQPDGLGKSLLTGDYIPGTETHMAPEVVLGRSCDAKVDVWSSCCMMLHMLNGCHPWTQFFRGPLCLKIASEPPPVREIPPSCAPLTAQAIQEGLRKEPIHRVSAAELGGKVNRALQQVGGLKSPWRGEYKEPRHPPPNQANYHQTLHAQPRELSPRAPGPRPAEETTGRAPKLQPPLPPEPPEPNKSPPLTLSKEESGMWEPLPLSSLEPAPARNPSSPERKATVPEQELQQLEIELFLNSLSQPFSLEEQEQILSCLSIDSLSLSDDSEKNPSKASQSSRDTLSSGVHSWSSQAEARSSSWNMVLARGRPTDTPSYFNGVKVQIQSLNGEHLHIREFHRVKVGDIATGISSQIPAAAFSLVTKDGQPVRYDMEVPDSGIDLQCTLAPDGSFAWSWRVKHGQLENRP

Consider `COc1cc(N2CC3(CCOCC3)C2)c(Cl)cc1Nc1nccc(-c2cnc3c(c2)C(C)(CO)CN3)n1` (single isomer, unassigned) [Compound 3S], for which the values for the IC50 in assay [1] (setting [3]), in assay [1] (setting [4]) and in assay [2] (setting [5]) were 6.7 nM, 1.3 nM and 17.3 nM, respectively.
On to `COc1cc(N2CCOCC2)c(C#N)cc1Nc1nccc(-c2cnc3c(c2)C(C)(CO)CN3)n1` (single isomer, unassigned) [Compound 4S], for which the IC50 (in general, the concentration that gives 50% inhibition) is 2.3 nM in assay [1] (setting [4]) and roughly 151 nM in assay [2] (setting [5]).
In the case of `CN(C)CCOc1cc(N2CCOCC2)c(Cl)cc1Nc1nccc(-c2cnc3c(c2)C(C)(CO)CN3)n1` (single isomer, unassigned) [Compound 272], the IC50 is 151 nM in assay [1] (setting [3]), 123 nM in assay [1] (setting [4]) and 9120 nM in assay [2] (setting [5]).
As for `COc1cc(N2CCC(O)CC2)c(Cl)cc1Nc1nccc(-c2cnc3c(c2)C(C)(CO)CN3)n1` (single isomer, unassigned) [Compound 343], the IC50 in assay [1] (setting [6]) is 19.1 nM; in assay [2] (location 1, P-IKKα levels in L363 cells, 2 hr treatment, read-out: Assay C location 1 IC50), roughly 7410 nM.
In the case of `COc1cc(C(=O)NC2CCOCC2)ccc1Nc1ncc(F)c(-c2cnc3c(c2)C(C)(CO)CN3)n1` (centres unmarked) [Compound 2], the IC50 came out at 5.5 nM in assay [1] (setting [3]) and 69.2 nM in assay [2] (setting [7]).
Take `COc1cc(N2CCOCC2)c(C#N)cc1Nc1nccc(-c2cnc3c(c2)C(C)(CO)CN3)n1` (centres unmarked) [Compound 4]: the 50% inhibitory concentration (IC50) in assay [1] (setting [3]) was 10.5 nM; in assay [1] (setting [4]), 2.9 nM; in assay [2] (setting [5]), 138 nM.
The like results for `COc1cc(C(=O)NC2CCOCC2)c(Cl)cc1Nc1nccc(-c2cnc3c(c2)C(C)(CO)CN3)n1` (centres unmarked) [Compound 8] were, in that order, 4.6 nM, 1.6 nM and 8.3 nM.
The like results for `COc1cc(S(C)(=O)=O)c(F)cc1Nc1nccc(-c2cnc3c(c2)C(C)(CO)CN3)n1` (centres unmarked) [Compound 12] were, in that order, 5.4 nM, 1.6 nM and 26.9 nM.
The corresponding values for `COc1cc(N2CCN(C(C)C)CC2)c(Cl)cc1Nc1nccc(-c2cnc3c(c2)C(C)(CO)CN3)n1` (centres unmarked) [Compound 14] are roughly 3 nM, 0.9 nM and 19.5 nM.
For `CN1CCC(Oc2ccc(Cl)cc2Nc2nccc(-c3cnc4c(c3)C(C)(CO)CN4)n2)CC1` (centres unmarked) [Compound 15], the results for the IC50 in assay [1] (setting [3]) and in assay [2] (setting [5]) were 8.5 nM and 479 nM, respectively.
For `COc1cc(C(=O)N2CCC(OC)C2)ccc1Nc1nccc(-c2cnc3c(c2)C(C)(CO)CN3)n1` (centres unmarked) [Compound 136], the IC50 came out at 3.3 nM in assay [1] (setting [4]), 355 nM in assay [2] (setting [5]) and 229 nM in assay [2] (setting [7]).
The like results for `COc1cc(C(=O)NC2CCOC2)ccc1Nc1nccc(-c2cnc3c(c2)C(C)(CO)CN3)n1` (centres unmarked) [Compound 137] were, in that order, 5 nM, 339 nM and 347 nM.
On to `COc1cc(C(=O)N2CCCC2)ccc1Nc1nccc(-c2cnc3c(c2)C(C)(CO)CN3)n1` (centres unmarked) [Compound 138], for which the IC50 in assay [1] (setting [4]) worked out at 6.3 nM; in assay [2] (setting [7]), 234 nM.
On to `COc1cc(C(=O)N2CCCCC2)ccc1Nc1nccc(-c2cnc3c(c2)C(C)(CO)CN3)n1` (centres unmarked) [Compound 139], for which the IC50 was determined as 6.9 nM in assay [1] (setting [3]), 6.9 nM in assay [1] (setting [4]), 166 nM in assay [2] (setting [5]) and 102 nM in assay [2] (setting [7]).
Turning to `CC1(CO)CNc2ncc(-c3ccnc(Nc4ccc(C(=O)NC5CCOCC5)cc4OC(F)F)n3)cc21` (centres unmarked) [Compound 140], the IC50 worked out at 4.5 nM in assay [1] (setting [4]) and 1070 nM in assay [2] (setting [7]).
The like results for `COc1cc(C(=O)N2CCCCCC2)ccc1Nc1nccc(-c2cnc3c(c2)C(C)(CO)CN3)n1` (centres unmarked) [Compound 141] were, in that order, 10.2 nM and 148 nM.
In the case of `COc1cc(C(=O)NC2CCCOCC2)ccc1Nc1nccc(-c2cnc3c(c2)C(C)(CO)CN3)n1` (centres unmarked) [Compound 142], the half-maximal inhibitory concentration (IC50) is 13.5 nM in assay [1] (setting [4]), 309 nM in assay [2] (setting [5]) and 204 nM in assay [2] (setting [7]).
Regarding `COc1cc(C(=O)N2CCN(C)CC2)ccc1Nc1nccc(-c2cnc3c(c2)C(C)(CO)CN3)n1` (centres unmarked) [Compound 143], the IC50 stood at 17 nM in assay [1] (setting [3]), 14.5 nM in assay [1] (setting [4]) and 224 nM in assay [2] (setting [7]).
On to `COc1cc(CNC(C)=O)ccc1Nc1nccc(-c2cnc3c(c2)C(C)(CO)CN3)n1` (centres unmarked) [Compound 145], for which the IC50 stood at 7.2 nM in assay [1] (setting [4]) and 324 nM in assay [2] (setting [7]).
Take `COc1cc(C(=O)NC2CCOCC2)ccc1Nc1nccc(-c2cnc3c(c2)C(C)(CC#N)CN3)n1` (centres unmarked) [Compound 147]: the IC50 amounted to 4.1 nM in assay [1] (setting [4]) and 52.5 nM in assay [2] (setting [7]).
For the compound `COc1cc(C(=O)N2CCC(OC)CC2)ccc1Nc1nccc(-c2cnc3c(c2)C(C)(CC#N)CN3)n1` (centres unmarked) [Compound 148], the IC50 is 4.8 nM in assay [1] (setting [4]) and 158 nM in assay [2] (setting [7]).
The like results for `COc1cc(C(=O)N2CCCC(OC)CC2)ccc1Nc1nccc(-c2cnc3c(c2)C(C)(CO)CN3)n1` (centres unmarked) [Compound 150] were, in that order, 5.4 nM and 105 nM.
Consider `COc1ccccc1Nc1nccc(-c2cnc3c(c2)C(C)(CO)CN3)n1` (centres unmarked) [Compound 151], for which the values for the IC50 in assay [1] (setting [4]), in assay [2] (setting [5]) and in assay [2] (setting [7]) were 17.8 nM, roughly 912 nM and 676 nM, respectively.
Take `COc1cc(C(=O)N(C)C)ccc1Nc1nccc(-c2cnc3c(c2)C(C)(CO)CN3)n1` (centres unmarked) [Compound 153]: the IC50 in assay [1] (setting [3]) is 18.6 nM; in assay [2] (setting [7]) it was 427 nM.
`CN1CCC(Oc2ccccc2Nc2nccc(-c3cnc4c(c3)C(C)(CO)CN4)n2)CC1` (centres unmarked) [Compound 246]: the half-maximal inhibitory concentration (IC50) in assay [1] (setting [3]) was 30.9 nM; in assay [1] (setting [4]) it was 17.8 nM; in assay [2] (setting [5]), roughly 2000 nM.
The like results for `COc1cc(N2CCN(C)CC2)c(Cl)cc1Nc1nccc(-c2cnc3c(c2)C(C)(CO)CN3)n1` (centres unmarked) [Compound 267] were, in that order, 4.7 nM, 0.5 nM and 28.8 nM.
For `COc1cc(N2CC(OC)C2)c(Cl)cc1Nc1nccc(-c2cnc3c(c2)C(C)(CO)CN3)n1` (centres unmarked) [Compound 269], the IC50 in assay [1] (setting [4]) stood at 1.8 nM; in assay [2] (setting [5]), 41.7 nM.
Regarding `COc1cc(N2CCC(N(C)C)CC2)c(Cl)cc1Nc1nccc(-c2cnc3c(c2)C(C)(CO)CN3)n1` (centres unmarked) [Compound 277], the IC50 was roughly 3 nM in assay [1] (setting [3]), 0.4 nM in assay [1] (setting [4]) and 23.4 nM in assay [2] (setting [5]).
The corresponding values for `COc1cc(C(=O)NC2CCOCC2)c(Cl)cc1Nc1nccc(-c2cnc3c(c2)C(C)(C)CN3)n1` [Compound 299] are 3.2 nM, 0.9 nM and 29.5 nM.
The corresponding values for `COc1cc(N2CCC(O)CC2)c(Cl)cc1Nc1nccc(-c2cnc3c(c2)C(C)(CO)CN3)n1` (centres unmarked) [Compound 301] are 5.4 nM, 1.1 nM and 23.4 nM.
Take `COc1cc(S(C)(=O)=O)c(Cl)cc1Nc1nccc(-c2cnc3c(c2)C(C)(CO)CN3)n1` (centres unmarked) [Compound 331]: the values for the IC50 in assay [1] (setting [3]) and in assay [2] (setting [5]) were 6.5 nM and 79.4 nM, respectively.
The like results for `CC1(CO)CNc2ncc(-c3ccnc(Nc4ccccc4S(C)(=O)=O)n3)cc21` (centres unmarked) [Compound 334] were, in that order, 3980 nM and greater than 10000 nM.
Take `CC1(CO)CNc2ncc(-c3ccnc(Nc4cc(Cl)ccc4S(C)(=O)=O)n3)cc21` (centres unmarked) [Compound 335]: the IC50 in assay [1] (setting [3]) was 269 nM; in assay [2] (setting [5]), greater than 10000 nM.
As to `CN1CCC(Oc2ccc(Cl)cc2Nc2nccc(-c3cnc4c(c3)C(C)(C)CN4)n2)CC1` [Compound 338], the IC50 turned out to be 19.1 nM in assay [1] (setting [6]) and 3890 nM in assay [2] (setting [8]).
For `COc1cc(S(C)(=O)=O)c(F)cc1Nc1nccc(-c2cnc3c(c2)C(C)(C)CN3)n1` [Compound 342], the IC50 in assay [1] (setting [6]) is 7.9 nM; in assay [1] (location 2, NIK auto-phosphorylation, AlphaScreen, read-out: Assay B location 2 IC50) it was 4.6 nM; in assay [2] (setting [8]) it was 155 nM.
